Assay results as given in article PMC8945686, “Anticancer Effects with Molecular Docking Confirmation of Newly Synthesized Isatin Sulfonamide Molecular Hybrid Derivatives against Hepatic Cancer Cell Lines” (Biomedicines, 2022).
Values joined by “and” are separate entries in the source; they are usually repeats but may differ in a detail not shown here. Identical values can stand only once. Marks after values point to notes of the source that are not given here.

Legend:
Huh7 cells = experiment: MTT cytotoxicity assay on Huh7 cells; format: cell-based, human; settings: for % Death Rate at 100 p.p.m (μg/mL) Huh7: 48 h; for IC50: Homo sapiens, Huh-7, 48 h
Procedure: (§1) MTT-based cell viability assay was carried out to evaluate the antiproliferation potential of the target compounds on HCC cell lines (HepG2 and Huh7). The half maximal inhibitory concentration (IC50) values were calculated against DMSO non-treated HepG2 cells (negative control) and Dox-treated HepG2 cells (positive control). The assay was conducted using 3-(4, 5-di-MethylThiazol-2-yl)-2,5-diphenyl Tetrazolium bromide (MTT) to test cell viability, according to the method described by Mosmann with minor changes. The yellow MTT is reduced in the viable cells to purple formazan. The insoluble formazan is solubilized by DMSO to colored solution measured spectrophotometrically. Briefly, cells were seeded in a 96-well plate at density of 1 × 10^4 cells/well for 24 h in 5% CO2 incubator at 37 °C to allow their adherence. […] After incubation, 20 μL of a 5 mg/mL MTT solution were mixed with the contents of each well, and the plate was incubated for another 4 h. Then, the medium was suctioned, and the wells were washed with PBS. After 2 h of drying, 200 μL of DMSO was added to each well. The plate was set on a shaker to dissolve the formazan crystals. Then, the absorbance was measured spectrophotometrically at 570 nm with a reference wavelength of 630 nm using ELX800 UV universal microplate reader (BioTek Instruments Inc., VT, Santa Clara, CA, USA).
(§2) All experiment conditions were tested in three replicates. The % cell viability was calculated from the following equation: (mean absorbance of treated sample/mean absorbance of negative control sample) × 100. The % death rate = 100 -% cell viability, and the inhibitory concentration of 50% (IC50) was measured from the exponential curve of viability against concentration (dose–response curve).

[1] = tested on: urokinase Plasminogen Activator (uPA); experiment: uPA level in HepG2 cell lysate (ELISA); format: cell-based, human; settings: HepG2 treated at IC50, 48 h
Procedure: (§3) As previously described, with little modification, HepG2 cells were cultured in T25 flask until they reached 30% confluency. […] After treatment, cells were washed by PBS, trypsinized and centrifuged at 10,000 rpm. The formed pellets were washed twice with PBS and lysed in 1 mL ice-cold radio immunoprecipitation assay (RIPA) lysis buffer (50 mM Tris-HCl, pH 8.0, 150 mM NaCl, 1% Triton X-100, 0.5% sodium deoxycholate, 0.1% sodium dodecyl sulfate) and kept on ice for 20 min. Then, the mixture was centrifuged at 15,000 rpm for 15 min to remove any cell debris. The cell lysate was aliquoted and stored at −80 °C for determination of protein using Pierce BCA Protein Assay Kit (Thermo Fisher Scientific, Waltham/Boston, USA) according to manufacturer’s recommendations and determination of other biochemical parameters including EGFR, urokinase Plasminogen Activator (uPA), B-Cell Lymphoma-2 (Bcl-2), heparanase, and oxidative stress markers (glutathione; GSH and malonaldehyde; MDA).
(§4) Levels of EGFR [37] and heparanase in cell lysate were investigated using commercially available enzyme-linked immunosorbent assay (ELISA) kits supplied by Abcam (Cat. No. ab269558, ab256401, respectively). Levels of uPA [39] were measured using ELISA kit supplied by Creative Diagnostics (New York, USA, Cat. No. DEIA1630). Bcl-2 levels were determined using ELISA kit supplied by Zymed Laboratories, Carlsbad, California (Cat. No. 99-0042). Briefly, standards and samples were added to corresponding 96-well plate coated with suitable antibody. After the washing step, biotinylated anti-human antibody was added to each well. After washing away unbound biotinylated antibody, horseradish peroxidase (HRP)-conjugated streptavidin was pipetted into each well. A peroxidase substrate solution was added to all wells, after washing, and the color developed was proportionate to the amount of EGFR bound. Finally, the stop solution was added and the color intensity was measured at 450 nm.

HepG2 cells [2] = experiment: Cell cycle analysis by flow cytometry (PI staining); format: cell-based, human; settings: for %Cell Cycle Arrest/Phase %G0-G1 / %Cell Cycle Arrest/Phase %G2-M / %Cell Cycle Arrest/Phase %S / %Cell Cycle Arrest/Phase %pre-G1: HepG2, 5 µM, 48 h; for G2-M arrest, fold higher compared to the negative control: HepG2, negative control 7.1%
Procedure: In 6-well plate, HepG2 (1 × 10^5 cells per well) were treated with either (0.1% DMSO) vehicle or 5 μM of 3a, 4b, and 4c compounds. After 48 h incubation, cells were harvested and fixed for 12 h using ice-cold 70% ethanol at 4 °C. Ethanol was removed and cells were washed by PBS and incubated for 30 min at 37 °C in 0.5 mL of PBS containing 1 mg/mL RNase. Then, cells were stained for 30 min with PI in the dark and the DNA content was determined using flow cytometer.

[3] = tested on: B-Cell Lymphoma-2 (Bcl-2); experiment: Bcl-2 level in HepG2 cell lysate (ELISA); format: cell-based, human; settings: HepG2 treated at IC50, 48 h
Procedure: as §3, §4

HepG2 cells [4] = experiment: MTT cytotoxicity assay on HepG2 cells; format: cell-based; settings: Homo sapiens; for cytotoxicity at 100 ppm: 48 h, 100 p.p.m (μg/mL), read-out: % Death Rate at 100 p.p.m (μg/mL) HepG2; for IC50: HepG2, 48 h
Procedure: as §1, §2

glutathione (GSH) = experiment: GSH level in HepG2 cell lysate (DTNB method); format: cell-based, human; settings: HepG2 treated at IC50, 48 h
Procedure: as §3
Glutathione levels were determined using GSH Biodiagnostics kit (Cairo, Egypt). The method is based on the reduction of 5,5′dithiobis (2-nitrobenzoic acid) (DTNB) with glutathione (GSH) to produce a yellow compound. The reduced chromogen is directly proportional to GSH concentration and its absorbance was measured at 405 nm.

malonaldehyde (MDA) = experiment: MDA level in HepG2 cell lysate (TBA method); format: cell-based, human; settings: HepG2 treated at IC50, 48 h
Procedure: as §3
Levels of MDA, the marker of lipid peroxidation, were measured by thiobarbituric acid (TBA) method. TBA reacts with MDA in an acidic medium at temperature of 95 °C for 30 min to form colored thiobarbituric acid reactive (TBAR) product, the absorbance of which was measured at 534 nm. The MDA kit was purchased from Biodiagnostics, Cairo, Egypt.

heparanase = experiment: Heparanase level in HepG2 cell lysate (ELISA); format: cell-based, human; settings: HepG2 treated at IC50, 48 h
Procedure: as §3, §4

Structure (SMILES) | % Death Rate at 100 p.p.m (μg/mL) Huh7 (Huh7 cells) | IC50 (Huh7 cells) | uPA level in cell lysate [1] | %Cell Cycle Arrest/Phase %G0-G1 (HepG2 cells [2]) | %Cell Cycle Arrest/Phase %G2-M (HepG2 cells [2]) | %Cell Cycle Arrest/Phase %S (HepG2 cells [2]) | %Cell Cycle Arrest/Phase %pre-G1 (HepG2 cells [2]) | G2-M arrest, fold higher compared to the negative control (HepG2 cells [2]) | Bcl-2 level in cell lysate [3] | cytotoxicity at 100 ppm (HepG2 cells [4]) | IC50 (HepG2 cells [4]) | GSH level in cell lysate (glutathione (GSH)) | MDA level in cell lysate (malonaldehyde (MDA)) | Heparanase level in cell lysate (heparanase) | uPA level in cell lysate ([1]; listed as Dox) | uPA level in cell lysate ([1]; listed as Positive) | MDA level in cell lysate (malonaldehyde (MDA); listed as Dox) | MDA level in cell lysate (malonaldehyde (MDA); listed as Positive)
Cc1ccc(C(=O)CC2(O)C(=O)Nc3ccc(S(=O)(=O)N4CCCCC4)cc32)cc1 (centres unmarked) [Compound 3a, 3-hydroxy-3-(2-oxo-2-(p-tolyl)ethyl)-5-(piperidin-1-ylsulfonyl)indolin-2-one] | 100 * % | 40 ± 2.2 µM | 1258 ± 15 nmol/mg protein and 1258 ± 15 ^a* nmol/mg protein | 31.57% | 44.85% | 23.58% | 46.29% | 6.32 fold | 4.2 ± 0.1 nmol/mg protein and 4.2 ± 0.10 ^a*^,b* nmol/mg protein | 70.1% | ~16.8 µM | 1.6 ± 0.7 µmol/mg protein | 2.0 ± 0.5 µmol/mg protein and 2.0 ± 0.5 ^a*^,b* µmol/mg protein | 1262 ± 35 pmol/mg protein and 1262 ± 35 ^a*^,b* pmol/mg protein | – | – | – | –
CC(=O)Nc1ccc(C(=O)C=C2C(=O)Nc3ccc(S(=O)(=O)N4CCCCC4)cc32)cc1 [Compound 4b, N-(4-(2-(2-oxo-5-(piperidin-1-ylsulfonyl)indolin-3-ylidene)acetyl)phenyl)acetamide] | 76.00 * % | 53 ± 3 µM | 1916 ± 40 nmol/mg protein and 1916 ± 40 ^a*^,b* nmol/mg protein | 41.25% | 5.49% | 53.26% | 28.14% | – | 2.5 ± 0.04 nmol/mg protein and 2.5 ± 0.04 ^a,b* nmol/mg protein | 94.2% | ~44.7 µM | 1.1 ± 0.7 µmol/mg protein | 3.7 ± 0.4 µmol/mg protein and 3.7 ± 0.4 ^a*^,b* µmol/mg protein | 1827 ± 30 pmol/mg protein and 1827 ± 30 ^a*^, b* pmol/mg protein | – | – | – | –
CC(=O)Nc1cccc(C(=O)C=C2C(=O)Nc3ccc(S(=O)(=O)N4CCCCC4)cc32)c1 [Compound 4c, N-(3-(2-(2-oxo-5-(piperidin-1-ylsulfonyl)indolin-3-ylidene)acetyl)phenyl)acetamide] | 75.60 * % | 35 ± 1.9 µM | 1729 ± 38 nmol/mg protein and 1729 ± 38 ^a*^,b* nmol/mg protein | 36.44% | 37.62% | 25.94% | 32.02% | 5.30 fold | 3.6 ± 0.11 nmol/mg protein and 3.6 ± 0.11 ^a*^,b* nmol/mg protein | 95.6% | ~39.7 µM | 2.1 ± 0.3 ^b* µmol/mg protein | 14.5 ± 1.4 µmol/mg protein | 1449 ± 12.5 pmol/mg protein and 1449 ± 12.5 ^a*^,b* pmol/mg protein | – | – | – | –
COc1cccc2c1C(=O)c1c(O)c3c(c(O)c1C2=O)C[C@@](O)(C(=O)CO)C[C@@H]3O[C@H]1C[C@H](N)[C@H](O)[C@H](C)O1 [Doxorubicin, reference compound] | 100% | 11.6 ± 0.9 µM | – | 29.74% | 39% | 31.26% | 42.38% | – | 1.7 ± 0.10 ^a* nmol/mg protein | 100% | 21.6 ± 0.81 µM | 0.8 ± 0.1 ^a* µmol/mg protein | – | 902.1 ± 21 ^a* pmol/mg protein | 1244 ± 18 nmol/mg protein | 1244 ± 18 ^a* nmol/mg protein | 18.5 ± 1.5 µmol/mg protein | 18.5 ± 1.5 ^a* µmol/mg protein
